# Laboratory results reported in patent US6358885B1, “Substituted phenylheterocyclic herbicides” (Mississippi State University, priority 1992, dated 2002).
# Key:
# morningglory [1] = assay: Test B preemergence/postemergence greenhouse plant response rating 0 to 10; type: in vivo, Ipomoea hederacea; settings: 0 to 10 scale
# Method in brief: (§1)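 Test chemicals were sprayed onto freshly planted seed and, concurrently, onto young plants between the one and four leaf stage. After a twelve- to sixteen-day greenhouse period, each species was visually compared with untreated controls.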
# bedstraw = assay: Test C preemergence/postemergence greenhouse plant response rating 0 to 100; type: in vivo, Galium aparine; settings: for Plant response rating, Bedstraw: 125 g/ha, 0 to 100 scale
# Method in brief: (§2)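 Compounds in non-phytotoxic solvent applied preemergence to sandy loam one day after planting, postemergence at the 1–4 leaf stage, or to ~2.5 cm floodwater over silt loam.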
# chickweed [2] = assay: Test B preemergence/postemergence greenhouse plant response rating 0 to 10; type: in vivo, Stellaria media; settings: 0 to 10 scale
# Method in brief: as §1
# barley = assay: Test C preemergence/postemergence greenhouse plant response rating 0 to 100; type: in vivo, Hordeum vulgare; settings: for Plant response rating Barley Igri: 125 g/ha, 0 to 100 scale
# Method in brief: as §2
# soybean [3] = assay: Test B preemergence/postemergence greenhouse plant response rating 0 to 10; type: in vivo, Glycine max; settings: 0 to 10 scale
# Method in brief: as §1
# chickweed [4] = assay: Test C preemergence/postemergence greenhouse plant response rating 0 to 100; type: in vivo, Stellaria media; settings: PREEMERGENCE
# Method in brief: as §2
# morningglory [5] = assay: as above; type: in vivo, Ipomoea hederacea; settings: for Plant response rating, Morningglory: 125 g/ha, 0 to 100 scale
# Method in brief: as §2
# crabgrass = assay: Test B preemergence/postemergence greenhouse plant response rating 0 to 10; type: in vivo, Digitaria spp.; settings: 0 to 10 scale
# Method in brief: as §1
# downy brome = assay: Test C preemergence/postemergence greenhouse plant response rating 0 to 100; type: in vivo, Bromus tectorum; settings: for Plant response rating Downy Brome: 125 g/ha, 0 to 100 scale
# Method in brief: as §2
# wild oat = assay: Test B preemergence/postemergence greenhouse plant response rating 0 to 10; type: in vivo, Avena fatua; settings: 0 to 10 scale
# Method in brief: as §1
# purple nutsedge = assay: as above; type: in vivo, Cyperus rotundus; settings: 0 to 10 scale
# Method in brief: as §1
# umbrella sedge = assay: Test C flood test plant response rating 0 to 100; type: in vivo, Cyperus difformis
# Method in brief: as §2
# rape = assay: Test B preemergence/postemergence greenhouse plant response rating 0 to 10; type: in vivo, Brassica napus; settings: 0 to 10 scale
# Method in brief: as §1
# wheat = assay: as above; type: in vivo, Triticum aestivum; settings: 0 to 10 scale
# Method in brief: as §1
# wild buckwheat = assay: Test C preemergence/postemergence greenhouse plant response rating 0 to 100; type: in vivo, Polygonum convolvulus; settings: for Plant response rating, Wild buckwheat: 125 g/ha, 0 to 100 scale
# Method in brief: as §2
# corn = assay: Test B preemergence/postemergence greenhouse plant response rating 0 to 10; type: in vivo, Zea mays; settings: 0 to 10 scale
# Method in brief: as §1
# sorghum = assay: as above; type: in vivo, Sorghum bicolor; settings: 0 to 10 scale
# Method in brief: as §1
# soybean [6] = assay: Test C preemergence/postemergence greenhouse plant response rating 0 to 100; type: in vivo, Glycine max; settings: for Plant response rating, Soybean: 125 g/ha, 0 to 100 scale
# Method in brief: as §2
structure (smiles),measurement,setting,value
Fc1cc(Cl)ccc1-c1nn2c(c1Br)CCCC2 [Compound 52],"Plant response rating, Morningglory","morningglory [1]; POSTEMERGENCE, Rate 50 g/ha",9
same,"Plant response rating, Morningglory","morningglory [1]; PREEMERGENCE, Rate 50 g/ha",0
same,"Plant response rating, Morningglory","morningglory [1]; Rate 200 g/ha, POSTEMERGENCE",9
same,"Plant response rating, Morningglory","morningglory [1]; Rate 200 g/ha, PREEMERGENCE",2
same,"Plant response rating, Bedstraw",bedstraw; POSTEMERGENCE,100
same,"Plant response rating (0 to 100), Bedstraw","bedstraw; POSTEMERGENCE, Rate 2 g/ha",50
same,"Plant response rating, Bedstraw",bedstraw; PREEMERGENCE,80
same,"Plant response rating (0 to 100), Bedstraw","bedstraw; PREEMERGENCE, Rate 2 g/ha",0
same,"Plant response rating (0 to 100), Bedstraw","bedstraw; Rate 8 g/ha, POSTEMERGENCE",70
same,"Plant response rating (0 to 100), Bedstraw","bedstraw; Rate 8 g/ha, PREEMERGENCE",0
same,"Plant response rating (0 to 100), Bedstraw","bedstraw; Rate 31 g/ha, POSTEMERGENCE",70
same,"Plant response rating (0 to 100), Bedstraw","bedstraw; Rate 31 g/ha, PREEMERGENCE",10
same,"Plant response rating, Chickweed","chickweed [2]; POSTEMERGENCE, Rate 50 g/ha",5
same,"Plant response rating, Chickweed","chickweed [2]; POSTEMERGENCE, Rate 200 g/ha",7
same,"Plant response rating, Chickweed","chickweed [2]; PREEMERGENCE, Rate 50 g/ha",9
same,"Plant response rating, Chickweed","chickweed [2]; Rate 200 g/ha, PREEMERGENCE",9
same,Plant response rating Barley Igri,barley; POSTEMERGENCE,50
same,"Plant response rating (0 to 100), Barley Igri","barley; POSTEMERGENCE, Rate 2 g/ha",10
same,Plant response rating Barley Igri,barley; PREEMERGENCE,10
same,"Plant response rating (0 to 100), Barley Igri","barley; PREEMERGENCE, Rate 2 g/ha",0
same,"Plant response rating (0 to 100), Barley Igri","barley; Rate 8 g/ha, POSTEMERGENCE",20
same,"Plant response rating (0 to 100), Barley Igri","barley; Rate 8 g/ha, PREEMERGENCE",0
same,"Plant response rating (0 to 100), Barley Igri","barley; Rate 31 g/ha, POSTEMERGENCE",40
same,"Plant response rating (0 to 100), Barley Igri","barley; Rate 31 g/ha, PREEMERGENCE",0
same,"Plant response rating, Soybean","soybean [3]; POSTEMERGENCE, Rate 50 g/ha",10
same,"Plant response rating, Soybean","soybean [3]; PREEMERGENCE, Rate 50 g/ha",0
same,"Plant response rating, Soybean","soybean [3]; Rate 200 g/ha, POSTEMERGENCE",8
same,"Plant response rating, Soybean","soybean [3]; Rate 200 g/ha, PREEMERGENCE",0
same,"Plant response rating, Chickweed","chickweed [4]; 125 g/ha, 0 to 100 scale",20
same,"Plant response rating (0 to 100), Chickweed",chickweed [4]; Rate 2 g/ha,0
same,"Plant response rating (0 to 100), Chickweed",chickweed [4]; Rate 8 g/ha,0
same,"Plant response rating (0 to 100), Chickweed",chickweed [4]; Rate 31 g/ha,0
same,"Plant response rating, Morningglory",morningglory [5]; POSTEMERGENCE,100
same,"Plant response rating (0 to 100), Morningglory","morningglory [5]; POSTEMERGENCE, Rate 2 g/ha",20
same,"Plant response rating, Morningglory",morningglory [5]; PREEMERGENCE,0
same,"Plant response rating (0 to 100), Morningglory","morningglory [5]; PREEMERGENCE, Rate 2 g/ha",0
same,"Plant response rating (0 to 100), Morningglory","morningglory [5]; Rate 8 g/ha, POSTEMERGENCE",30
same,"Plant response rating (0 to 100), Morningglory","morningglory [5]; Rate 8 g/ha, PREEMERGENCE",0
same,"Plant response rating (0 to 100), Morningglory","morningglory [5]; Rate 31 g/ha, POSTEMERGENCE",50
same,"Plant response rating (0 to 100), Morningglory","morningglory [5]; Rate 31 g/ha, PREEMERGENCE",0
same,"Plant response rating, Crabgrass","crabgrass; POSTEMERGENCE, Rate 50 g/ha",6
same,"Plant response rating, Crabgrass","crabgrass; POSTEMERGENCE, Rate 200 g/ha",7
same,"Plant response rating, Crabgrass","crabgrass; PREEMERGENCE, Rate 50 g/ha",2
same,"Plant response rating, Crabgrass","crabgrass; Rate 200 g/ha, PREEMERGENCE",10
same,Plant response rating Downy Brome,downy brome; POSTEMERGENCE,90
same,"Plant response rating (0 to 100), Downy Brome","downy brome; POSTEMERGENCE, Rate 2 g/ha",10
same,Plant response rating Downy Brome,downy brome; PREEMERGENCE,50
same,"Plant response rating (0 to 100), Downy Brome","downy brome; PREEMERGENCE, Rate 2 g/ha",0
same,"Plant response rating (0 to 100), Downy Brome","downy brome; Rate 8 g/ha, POSTEMERGENCE",20
same,"Plant response rating (0 to 100), Downy Brome","downy brome; Rate 8 g/ha, PREEMERGENCE",0
same,"Plant response rating (0 to 100), Downy Brome","downy brome; Rate 31 g/ha, POSTEMERGENCE",50
same,"Plant response rating (0 to 100), Downy Brome","downy brome; Rate 31 g/ha, PREEMERGENCE",0
same,"Plant response rating, Wild oat","wild oat; POSTEMERGENCE, Rate 50 g/ha",5
same,"Plant response rating, Wild oat","wild oat; PREEMERGENCE, Rate 50 g/ha",4
same,"Plant response rating, Wild oat","wild oat; Rate 200 g/ha, POSTEMERGENCE",8
same,"Plant response rating, Nutsedge","purple nutsedge; POSTEMERGENCE, Rate 50 g/ha",3
same,"Plant response rating, Nutsedge","purple nutsedge; PREEMERGENCE, Rate 50 g/ha",0
same,"Plant response rating, Nutsedge","purple nutsedge; Rate 200 g/ha, POSTEMERGENCE",5
same,"Plant response rating, Nutsedge","purple nutsedge; Rate 200 g/ha, PREEMERGENCE",0
same,"Plant response rating (0 to 100), Umbrella sedge","umbrella sedge; POSTEMERGENCE section, flood test, Rate 2 g/ha",10
same,"Plant response rating (0 to 100), Umbrella sedge","umbrella sedge; Rate 8 g/ha, under POSTEMERGENCE head (flood test species)",20
same,"Plant response rating (0 to 100), Umbrella sedge","umbrella sedge; Rate 31 g/ha, under POSTEMERGENCE head (flood test species)",25
same,Plant response rating Umbrella sedge,"umbrella sedge; flood test species listed under POSTEMERGENCE, 125 g/ha, 0 to 100 scale",80
same,"Plant response rating, Rape","rape; POSTEMERGENCE, Rate 50 g/ha",8
same,"Plant response rating, Rape","rape; PREEMERGENCE, Rate 50 g/ha",1
same,"Plant response rating, Rape","rape; Rate 200 g/ha, POSTEMERGENCE",10
same,"Plant response rating, Rape","rape; Rate 200 g/ha, PREEMERGENCE",9
same,"Plant response rating, Wheat","wheat; POSTEMERGENCE, Rate 50 g/ha",4
same,"Plant response rating, Wheat","wheat; PREEMERGENCE, Rate 50 g/ha",4
same,"Plant response rating, Wheat","wheat; Rate 200 g/ha, POSTEMERGENCE",8
same,"Plant response rating, Wheat","wheat; Rate 200 g/ha, PREEMERGENCE",7
same,"Plant response rating, Wild buckwheat",wild buckwheat; POSTEMERGENCE,100
same,"Plant response rating, Wild buckwheat",wild buckwheat; PREEMERGENCE,100
same,"Plant response rating (0 to 100), Wild buckwheat","wild buckwheat; PREEMERGENCE, Rate 2 g/ha",0
same,"Plant response rating (0 to 100), Wild buckwheat","wild buckwheat; Rate 8 g/ha, POSTEMERGENCE",40
same,"Plant response rating (0 to 100), Wild buckwheat","wild buckwheat; Rate 8 g/ha, PREEMERGENCE",0
same,"Plant response rating (0 to 100), Wild buckwheat","wild buckwheat; Rate 31 g/ha, POSTEMERGENCE",80
same,"Plant response rating (0 to 100), Wild buckwheat","wild buckwheat; Rate 31 g/ha, PREEMERGENCE",10
same,"Plant response rating, Corn","corn; POSTEMERGENCE, Rate 50 g/ha",6
same,"Plant response rating, Corn","corn; POSTEMERGENCE, Rate 200 g/ha",8
same,"Plant response rating, Corn","corn; PREEMERGENCE, Rate 50 g/ha",1
same,"Plant response rating, Corn","corn; Rate 200 g/ha, PREEMERGENCE",4
same,"Plant response rating, Sorghum","sorghum; POSTEMERGENCE, Rate 50 g/ha",4
same,"Plant response rating, Sorghum","sorghum; PREEMERGENCE, Rate 50 g/ha",2
same,"Plant response rating, Sorghum","sorghum; Rate 200 g/ha, POSTEMERGENCE",7
same,"Plant response rating, Sorghum","sorghum; Rate 200 g/ha, PREEMERGENCE",3
same,"Plant response rating, Soybean",soybean [6]; POSTEMERGENCE,70
same,"Plant response rating (0 to 100), Soybean","soybean [6]; POSTEMERGENCE, Rate 2 g/ha",10
same,"Plant response rating, Soybean",soybean [6]; PREEMERGENCE,0
same,"Plant response rating (0 to 100), Soybean","soybean [6]; PREEMERGENCE, Rate 2 g/ha",0
same,"Plant response rating (0 to 100), Soybean","soybean [6]; Rate 8 g/ha, POSTEMERGENCE",30
same,"Plant response rating (0 to 100), Soybean","soybean [6]; Rate 8 g/ha, PREEMERGENCE",0
same,"Plant response rating (0 to 100), Soybean","soybean [6]; Rate 31 g/ha, POSTEMERGENCE",40
same,"Plant response rating (0 to 100), Soybean","soybean [6]; Rate 31 g/ha, PREEMERGENCE",0
